Measurements published in patent US20180160709A1, “bitter taste removing preparation and method” (priority 2016, published 2018).

Experiment: In vitro membrane dialysis: bonding between bitter ingredients and proteins
Format: binding
Settings: among whey protein, milk powder, chicken ovalbumin, bovine serum albumin
Experimental: The possible hydrophobic bonding between bitter ingredients RO and protein molecules can be explored by using membrane dialysis:
Dialysis bag was purchased from Beijing Scientan science and technology company, molecular weight range 8-14 KD. The bag was immersed in 10 mL water in a beaker. The pore size on the membrane inhibited the protein molecules from penetrating.
Into the first group (control samples) bags added in the sophora flavescens, gentian, and scutellaria decoctions and Berberine in aqueous solution respectively, 0.2 mL each, and diluted with water to 2 mL total volume each. To simulate the Chinese medicine, in the 4 medicine decoctions used as sample and control sample, there was no additive and without any post processing.
In the second group of 4×5 bags, four different protein powders were added respectively: whey protein, milk powder, chicken ovalbumin, bovine serum albumin, 5 bags for each protein, 400 mg powder in each bag. As the last step of sample preparation, 2 mL of 1/10 diluted decoction solutions were added into the protein bags, 4 different protein bags for each medicine decoction to add in. Into the remaining set of 4 different protein bags from above, 2 ml water was added instead without any medicine decoction. […]
Scheduled sampling from the 10 mL water outside the bag, and followed by HPLC quantitative analysis. […]

bovine serum albumin: protein powder, 400 mg per dialysis bag
encapsulation or hydrophobic bonding ability: strongest
